Test results as given in ChEMBL document CHEMBL1148226, “Evidences for the formation of bisbenzamidine-heme complexes in cell-free systems” (Bioorg Med Chem Lett, 2004).

What was measured:
Plasmodium falciparum [1] = assay: In vitro inhibitory concentration against chloroquine-sensitive Plasmodium falciparum; Not active; assay type: functional, organism-based
Plasmodium falciparum [2] = assay: In vitro inhibitory concentration against chloroquine-resistant Plasmodium falciparum; Not active; assay type: functional, organism-based

With `CN1CCN(C)C1c1ccc(N2CCN(c3ccc(C4N(C)CCN4C)cc3)CC2)cc1` the IC50 (Plasmodium falciparum [1]) was “Not Active” and the IC50 (Plasmodium falciparum [2]) was “Not Active”.

In the case of `COc1ccc(N)cc1`, the IC50 (Plasmodium falciparum [1]) was “Not Active” and the IC50 (Plasmodium falciparum [2]) was “Not Active”.

With `CCOC(=O)c1ccc(N2CCN(c3ccc(C(=O)OCC)cc3)CC2)cc1` the IC50 (Plasmodium falciparum [1]) was “Not Active” and the IC50 (Plasmodium falciparum [2]) was “Not Active”.

`Cl.N=C(N)c1ccc(N)cc1` was tested, and the IC50 (Plasmodium falciparum [1]) was “Not Active” and the IC50 (Plasmodium falciparum [2]) was “Not Active”.

For `Nc1ccccc1` [ANILINE], the IC50 (Plasmodium falciparum [1]) was “Not Active” and the IC50 (Plasmodium falciparum [2]) was “Not Active”.

In the case of `CN` [METHYLAMINE], the IC50 (Plasmodium falciparum [1]) was “Not Active” and the IC50 (Plasmodium falciparum [2]) was “Not Active”.
